In general, IC50 refers to the concentration needed to halve the response being measured.

SMILES strings stand for the structures.

Drawing on patent publication US11976083B2, “Inhibitors of peptidylarginine deiminases” (Gilead Sciences, Inc., priority 2020, dated 2024), this text covers IC50 for 17 molecules.

For the test, the target named is T1, human PAD4 (Homo sapiens, UniProt Q9UM07).
T1 construct: human PAD4 (NM_012387), A2-P663, was PCR amplified; His-SUMO (N, cleaved yes); made in house; host or cells: E. coli BL21(DE3)
T1 sequence (Q9UM07 2-663): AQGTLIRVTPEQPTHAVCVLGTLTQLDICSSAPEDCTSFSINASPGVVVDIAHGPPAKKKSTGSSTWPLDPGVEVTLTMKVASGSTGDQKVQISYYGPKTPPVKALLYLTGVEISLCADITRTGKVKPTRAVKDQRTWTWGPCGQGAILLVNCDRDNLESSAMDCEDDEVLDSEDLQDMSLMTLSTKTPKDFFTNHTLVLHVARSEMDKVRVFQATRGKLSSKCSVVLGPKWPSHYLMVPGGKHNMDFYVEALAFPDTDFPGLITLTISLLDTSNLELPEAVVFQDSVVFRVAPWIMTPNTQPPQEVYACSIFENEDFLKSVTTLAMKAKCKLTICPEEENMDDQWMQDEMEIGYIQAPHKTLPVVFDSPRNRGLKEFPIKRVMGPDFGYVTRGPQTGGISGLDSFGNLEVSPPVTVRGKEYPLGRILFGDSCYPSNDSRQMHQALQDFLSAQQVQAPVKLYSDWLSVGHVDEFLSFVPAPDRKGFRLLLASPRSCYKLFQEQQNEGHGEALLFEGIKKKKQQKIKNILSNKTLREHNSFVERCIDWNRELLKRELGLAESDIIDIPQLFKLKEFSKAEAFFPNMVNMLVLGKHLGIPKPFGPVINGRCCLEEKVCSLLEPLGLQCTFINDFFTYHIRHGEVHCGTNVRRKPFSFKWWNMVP
Nature of the test: In vitro PAD4 BAEE biochemical assay. As to conditions: BAEE substrate 3 mM, 5 nM PAD4, 2 mM calcium chloride; geometric mean of multiple experiments. Summed up: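 Recombinant human PAD4 (5 nM final) with 2 mM CaCl2 was preincubated with compound 30 min at 25 °C in MOPS buffer pH 7.6, then reacted with 3 mM BAEE for 2 h at 25 °C. After EDTA stop, released ammonia was detected by o-phthalaldehyde/DTT fluorescence (ex 405/em 535 nm); IC50 from four-parameter fit, geometric mean.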
In the case of `C[C@H]1NC(=O)c2cnc(C(F)(F)F)cc2CCCCCn2c(-c3nc4cc(C(=O)N5C[C@H](N)[C@@H]6CC[C@H]5C6)cc(F)c4n3C3CC3)cc3ccc1nc32` [Example 844, (2~{R})-17-[5-[(1~{S},4~ {R},5~{R})-4-amino-2-azabicyclo [3.2.1]octane-2-carbonyl]-1-cyclopropyl-7-fluoro-benzimidazol-2-yl]-2-methyl-8-(trifluoromethyl)-3,7,16,22-tetrazatetracyclo[14.5.2.0^ {5,10).0^{19,23}]tricosa-1(22),5(10),6,8,17,19(23),20-heptaen-4-one], the IC50 turned out to be 35 nM.
The same measure for `COc1cc(C(=O)N2C[C@H](N)[C@@H]3CC[C@H]2C3)cc2nc(-c3cc4ccc5nc4n3CCCCCc3nccc(Cl)c3C(=O)N[C@@H]5C)n(C)c12` [Example 845, (2~{R})-17-[5-[(1~{S},4~{R}, 5~{R})-4-amino-2-azabicyclo [3.2.1]octane-2-carbonyl]-7-methoxy-1-methyl-benzimidazol-2-yl]-6-chloro-2-methyl-3,9,16,22-tetrazatetracyclo[14.5.2.0^ {5,10}.0^{19,23}]tricosa-1(22),5(10),6,8,17,19(23),20-heptaen-4-one]: 16 nM; for `C[C@H]1NC(=O)c2ccc(Cl)nc2CCCCCn2c(-c3nc4cc(C(=O)N5C[C@H](N)[C@@H]6CC[C@H]5C6)cc(F)c4n3[C@H]3C[C@H]3F)cc3ccc1nc32` [Example 846, (2~{R})-17-[5-[(1~{S),4~{R}, 5~{R})-4-amino-2-azabicyclo [3.2.1]octane-2-carbonyl]-7-fluoro-1-[(1~{S},2~{R})-2-fluorocyclopropyl]benzimidazol-2-yl]-8-chloro-2-methyl-3,9,16,22-tetrazatetracyclo[14.5.2.0^ {5,10).0^{19,23}]tricosa-1(22),5(10),6,8,17,19(23),20-heptaen-4-one]: 27 nM; for `COc1cc(C(=O)N2C[C@H](N)[C@@H]3CC[C@H]2C3)cc2nc(-c3cc4ccc5nc4n3CCCCCc3nc(C(F)(F)F)ccc3C(=O)N[C@@H]5C)n(C3CC3)c12` [Example 847, (2~{R})-17-[5-[(1~{S},4~{R}, 5~{R})-4-amino-2-azabicyclo [3.2.1]octane-2-carbonyl]-1-cyclopropyl-7-methoxy-benzimidazol-2-yl]-2-methyl-8-(trifluoromethyl)-3,9,16,22-tetrazatetracyclo[14.5.2.0^ {5,10}.0^{19,23}]tricosa-1(22),5(10),6,8,17,19(23),20-heptaen-4-one]: 82 nM.
The same measure for `COc1cc(C(=O)N2CC[C@@H](OC)[C@@H](N)C2)cc2nc(-c3cc4ccc5nc4n3CC(F)(F)CCC[C@@H]3C[C@H]3C(=O)N[C@@H]5C)n(C)c12` [Example 848, (2~{R},5~{R},7~{R})-14-[5-[(3~{S},4~{R})-3-amino-4-methoxy-piperidine-1-carbonyl]-7-methoxy-1-methyl-benzimidazol-2-yl]-11,11-difluoro-2-methyl-3,13,19-triazatetracyclo[11.5.2.0^ {5,7}.0^{16,20}]icosa-1(19),14,16(20),17-tetraen-4-one]: 33 nM.
The same measure for `COc1cc(C(=O)N2C[C@H](N)CC[C@@H]2C)cc2nc(-c3cc4ccc5nc4n3CC(F)(F)CCC[C@@H]3C[C@H]3C(=O)N[C@@H]5C)n(C)c12` [Example 849, (2~{R},5~{R},7~{R})-14-[5-[(2~{S},5~{R})-5-amino-2-methyl-piperidine-1-carbonyl]-7-methoxy-1-methyl-benzimidazol-2-yl]-11,11-difluoro-2-methyl-3,13,19-triazatetracyclo[11.5.2.0^ {5,7}.0^{16,20}]icosa-1(19), 14,16(20),17-tetraen-4-one]: 15 nM; for `COc1cc(C(=O)N2CC[C@@H](OC(F)F)[C@@H](N)C2)cc2nc(-c3cc4ccc5nc4n3CC(F)(F)CCC[C@@H]3C[C@H]3C(=O)N[C@@H]5C)n(C)c12` [Example 850, (2~{R},5~{R},7~{R})-14-[5-[(3~{S},4~{R})-3-amino-4-(difluoromethoxy)piperidine-1-carbonyl]-7-methoxy-1-methyl-benzimidazol-2-yl]-11,11-difluoro-2-methyl-3,13,19-triazatetracyclo[11.5.2.0^ {5,7}.0^{16,20}]icosa-1(19), 14,16(20),17-tetraen-4-one]: 64 nM.
For the molecule `COc1cc(C(=O)N2C[C@H](N)C[C@@H](F)C2)cc2nc(-c3cc4ccc5nc4n3CC(F)(F)CCC[C@@H]3C[C@H]3C(=O)N[C@@H]5C)n(C)c12` [Example 851, (2~{R},5~{R},7~{R})-14-[5-[(3~{R},5~{R})-3-amino-5-fluoro-piperidine-1-carbonyl]-7-methoxy-1-methyl-benzimidazol-2-yl]-11,11-difluoro-2-methyl-3,13,19-triazatetracyclo[11.5.2.0^ {5,7}.0^{16,20}]icosa-1(19), 14,16(20),17-tetraen-4-one], the IC50 was 20 nM.
The same measure for `COc1cc(C(=O)N2CCC[C@@H](N)[C@H]2C)cc2nc(-c3cc4ccc5nc4n3CC(F)(F)CCC[C@@H]3C[C@H]3C(=O)N[C@@H]5C)n(C)c12` [Example 852, (2~{R},5~{R},7~{R})-14-[5-[(2~{R},3~{R})-3-amino-2-methyl-piperidine-1-carbonyl]-7-methoxy-1-methyl-benzimidazol-2-yl]-11,11-difluoro-2-methyl-3,13,19-triazatetracyclo[11.5.2.0^ {5,7).0^{16,20}]icosa-1(19), 14,16(20),17-tetraen-4-one]: 16 nM.
The same measure for `COc1cc(C(=O)N2C[C@H]3CC[C@@H]2[C@@H]3N)cc2nc(-c3cc4ccc5nc4n3CC(F)(F)CCC[C@@H]3C[C@H]3C(=O)N[C@@H]5C)n(C)c12` [Example 853, (2~{R},5~{R},7~{R})-14-[5-[(1~{R},4~{R},7~{R})-7-amino-2-azabicyclo[2.2.1]heptane-2-carbonyl]-7-methoxy-1-methyl-benzimidazol-2-yl]-11,11-difluoro-2-methyl-3,13,19-triazatetracyclo[11.5.2.0^ {5,7}.0^{16,20}]icosa-1(19), 14,16(20),17-tetraen-4-one]: 48 nM; for `COc1cccc2c1C(=O)N[C@H](C)c1ccc3cc(-c4nc5cc(C(=O)N6CC[C@@H](OC)[C@@H](N)C6)cc(OC)c5n4C)n(c3n1)CCCCC2` [Example 854, (2~{R})-17-[5-[(3~{S},4~{R})-3-amino-4-methoxy-piperidine-1-carbonyl]-7-methoxy-1-methyl-benzimidazol-2-yl]-6-methoxy-2-methyl-3,16,22-triazatetracyclo[14.5.2.0^ {5,10}.0^{19,23}]tricosa-1(22),5(10),6,8,17,19(23),20-heptaen-4-one]: 68 nM.
The same measure for `COc1cc(C(=O)N2CC[C@@H](OC)[C@@H](N)C2)cc2nc(-c3cc4ccc5nc4n3CCCCCc3nccnc3C(=O)N(C)[C@@H]5C)n(C)c12` [Example 855, (2~{R})-17-[5-[(3~{S},4~{R})-3-amino-4-methoxy-piperidine-1-carbonyl]-7-methoxy-1-methyl-benzimidazol-2-yl]-2,3-dimethyl-3,6,9,16,22-pentazatetracyclo[14.5.2.0^ {5,10}.0^1923]tricosa-1(22),, 5(10),6,8,17,19(23),20-heptaen-4-one]: 65 nM; for `COc1cc(C(=O)N2CC[C@@H](OC)[C@@H](N)C2)cc2nc(-c3cc4ccc5nc4n3CCCC(F)(F)C[C@H]3C[C@@H]3C(=O)N[C@@H]5C)n(C)c12` [Example 856, (2~{R},5~{S},7~{R})-14-[5-[(3~{S),4~{R})-3-amino-4-methoxy-piperidine-1-carbonyl]-7-methoxy-1-methyl-benzimidazol-2-yl]-9,9-difluoro-2-methyl-3,13,19-triazatetracyclo [11.5.2.0^{5,7}.0^{16,20}] icosa-1(19),14,16(20), 17-tetraen-4-one]: 156 nM; for `COc1cc(C(=O)N2CC[C@@H](OC)[C@@H](N)C2)cc2nc(-c3cc4ccc5nc4n3CCCC(F)(F)C[C@@H]3C[C@H]3C(=O)N[C@@H]5C)n(C)c12` [Example 857]: 13 nM.
In the case of `COc1cc(C(=O)N2CC[C@@H](OC)[C@@H](N)C2)cc2nc(-c3cc4ccc5nc4n3CCCC(F)(F)C[C@@H]3C[C@@H]3C(=O)N[C@@H]5C)n(C)c12` [Example 858, (2~{R},5~{S},7~{S})-14-[5-[(3~{S},4~{R})-3-amino-4-methoxy-piperidine-1-carbonyl]-7-methoxy-1-methyl-benzimidazol-2-yl]-9,9-difluoro-2-methyl-3,13,19-triazatetracyclo [11.5.2.0^{5,7}.0^{16,20}] icosa-1(19),14,16(20), 17-tetraen-4-one], the IC50 turned out to be 459 nM.
The same measure for `COc1cc(C(=O)N2CC[C@@H](OC)[C@@H](N)C2)cc2nc(-c3cc4ccc5nc4n3CCCC(F)(F)C[C@H]3C[C@H]3C(=O)N[C@@H]5C)n(C)c12` [Example 859, (2~{R},5~{R},7~{R})-14-[5-[(3~{S},4~{R})-3-amino-4-methoxy-piperidine-1-carbonyl]-7-methoxy-1-methyl-benzimidazol-2-yl]-9,9-difluoro-2-methyl-3,13,19-triazatetracyclo [11.5.2.0^{5,7}.0^{16,20}] icosa-1(19),14,16(20),17-tetraen-4-one]: 38 nM; for `COc1cc(C(=O)N2CC[C@@H](OC)[C@@H](N)C2)cc2nc(-c3cc4ccc5nc4n3CCCCCCC(c3ccccn3)C(=O)N[C@@H]5C)n(C)c12` (some centres unmarked) [Example 860, (11~{R})-17-[5-[(3~{S),4~{R})-3-amino-4-methoxy-piperidine-1-carbonyl]-7-methoxy-1-methyl-benzimidazol-2-yl]-11-methyl-8-(2-pyridyl)-1,10,19-triazatricyclo [10.5.2.0^{15,18}]nonadeca-12(19),13,15(18),16-tetraen-9-one]: 44 nM.
